Assay results as given in patent US11696960B2, “Methods and compounds for detection and binding of aldehydes” (UNIVERSITY OF OTTAWA, priority 2017, dated 2023).

Columns and labels:
[1] = reaction with butanal, 1:10 DMF:PBS solution; cited from earlier work
[2] = Solubility of hydrazones in buffer; format: physicochemical
Method: (§1) The MRI contrast produced by CEST probes is dependent upon voxel-wise concentration, however previous investigations have reported non-linear concentration relationships for CEST contrast agents. In order to evaluate this dependence for Hydrazo-CEST compounds, Z-spectra were acquired for acetaldehyde (4b-4f) and 2-formylbenzenesulfonic acid-derived hydrazones (3b-3f) on a 300 MHz NMR from 5 mM to 40 mM, or the maximum solubility of the compound in neutral buffer. The dynamic range for Hydrazo-CEST signal production from each compound was then plotted using the maximum signal for each compound (6.4±0.4 ppm). Within the series of acetaldehyde-derived hydrazones, the 5-methoxy- (4f) and 5-hydroxy-substituted (4e) analogs had the broadest dynamic range for imaging signal, with the 5-methoxy-derivative showing the higher absolute % MTRasym and the most linear concentration-dependent signal production (R^2=0.98).
In addition to local probe concentrations, micro-environmental pH can modify CEST signal production, as pH directly impacts ksw. The effect of pH on % MTRasym was evaluated for the unsubstituted, 5-hydroxy-, and 5-methoxy-substituted hydrazones derived from acetaldehyde (4a, 4e, 4f) and 2-formylbenzenesulfonic acid (3a, 3e, 3f). […] The hydroxy- and methoxy-substituted aryl-hydrazones (3e, 3f) gave better CEST signal production from pH 6.5-8.0, but both were insoluble at 40 mM at pH 6.0. The differential pH responses associated with the Hydrazo-CEST probes studied are justified by the higher predicted electron density around the ring-proximal nitrogen of the aliphatic versus aromatic hydrazones, which would favor the protonated form of the hydrazo moiety at higher pH values.

[3] = Z-spectra / CEST signal production (% MTRasym) on 300 MHz NMR; conditions: for CEST-MRI signal generation (in words): Z-spectra, 37° C., pH 7.4, 40 mM; for CEST signal production: hydrazone with o-sulfobenzaldehyde, Z-spectrum (FIG. 19)
Method: FIG. 27 provides Z-spectra of compounds 8b, 10a, 12, and 11 for Panels A to D, respectively. […] The absence of the hydrazone proton through the formation of a pyrazole also completely abolishes CEST-MRI signal (Panel D). Raw data points (S/So are shown as black circles), exchangeable proton and water Lorentzian curves, and CEST-MRI signal production MTRasym (%), are also shown. All Z-spectra are obtained at 37° C. and pH 7.4 with 40 mM compound solutions in 10:1 PBS:D2O unless otherwise indicated.
Electron donating (OH, OCH3) and electron-withdrawing (I, SO3, NO2) substituents were appended at the 5-position of N-amino anthranilic acid (compounds 2b-2f), both acetaldehyde (4b-4f) or 2-formylbenzenesulfonic acid-derived hydrazones (3b-3f) were prepared, and Z-spectra were acquired in 1:10 D2O:PBS at pH 7.4 on a 300 MHz NMR.
In this way, per molar signal output could be compared across hydrazone series to examine electronic contributions to Hydrazo-CEST.
as §1
Z-spectra were acquired on a 300 MHz NMR in 10:1 PBS:D2O at 37° C., pH 7.4, at 40 mM, or the indicated concentration providing maximum solubility. Hydrazones were formed between 2f and (Panel A) 3-aminopropanal, (Panel B) crotonaldehyde, (Panel C) glyceraldehyde, and (Panel D) pyruvate.

[4] = system: hippocampal CA3 neurodegeneration; conditions: TMT rat model, Wood et al. (2006); cited from earlier work
[5] = Hydrazone product stability (spectrophotometric, HPLC); format: physicochemical; conditions: 1×PBS, 37° C.
Method: (§2) The hydrazone peak is shown (r.t.=17.5 min for MeONA^3 and 17.2 min for MeOPH) at the time points indicated, showing a loss of the MeOPH-derived hydrazone but stability of the MeONA^3-derived product over time. All reactions were performed in 1×PBS at 37° C., and points represent mean±s.d. for n=3 trials
The carboxylic acid ortho to the hydrazine is critical to the stability of the formed hydrazone product. All reactions were performed in 1×PBS at 37° C., and points represent mean±s.d. for n=3 trials.
(§3) Hydrazone stability was assayed both spectrophotometrically (FIG. 13, Panel A), as well as by HPLC (FIG. 13, Panel B). […] Since the signal produced by Hydrazo-CEST depends on the hydrazone form of the probe, the faster-forming and longer-lived the hydrazone product under physiological conditions, the better the imaging signal evolved and the more potentially sensitive the imaging technique.

[6] = Hydrazone formation kinetics and reaction completion in 1×PBS at 37° C.; conditions: for kobs: pseudo-first order, carbonyl o-sulfobenzaldehyde
Method: as §2
FIG. 13, discussed above, illustrates that the o-carboxylic acid contributes to substantial reaction completion as well as extended stability of the product hydrazone under physiological conditions. […] The hydrazone peak is shown (r.t.=17.5 min for 2f and 17.2 min for MeOPH) at the time points indicated. All reactions were performed in 1×PBS at 37° C., and points represent mean±s.d. for n=3 trials.
(§4) Repeating the methodology, however at 37° C. in 100% 1×PBS, determined the kobs for the reaction of 5-methoxy N-amino anthranilic acid (2f) and related analogs with 2-formylbenzenesulfonic acid (FIG. 13) and acetone.
as §3

[7] = Time-lapse imaging of acetaldehyde-derived hydrazone formation in PBS; conditions: room temperature
Text: N-Amino anthranilic esters can be fast-reacting aldehyde sensors. N-amino anthranilate methyl ester reacts rapidly with endogenous reactive aldehydes. The reaction of 5-methoxy-N-amino anthranilate methyl ester (1) with a reactive aldehyde results in the formation of […] in PBS at room temperature is shown: […]

[8] = Trapping of MDA by N-amino anthranilic acid probe, monitored by 1H-NMR and fluorimetry; conditions: incubation of NA^3 acid probe and MDA, 1H-NMR
Method: N-amino anthranilic acids can act as specific sensors for malondialdehyde. N-amino anthranilic acid reacts rapidly with MDA to form a fluorescent pyrazole. A proposed 2-step reaction scheme for the formation of the MDA-derived pyrazole (5) from 5-methoxy-N-amino anthranilic acid (3) is shown:
The formation of the MDA-derived pyrazole ring was monitored by ^1H-NMR. Hydrazone (4) formation happens within less than 1 min of incubation of the NA^3 acid probe and MDA. The pyrazole product (5) forms rapidly as well, and reaches completion within 20 min. The fluorescence ‘turn-on’ of the N-amino anthranilic acid probe is specific for MDA.

[9] = Hydrazone formation with glucose under physiological conditions (interference test); conditions: 37° C., 1 PBS, pH=7.4, within 4 h of incubation
[10] = Hydrazone formation kinetics under pseudo-first order conditions in 1×PBS at 37° C.; conditions: carbonyl acetaldehyde
Method: The carboxylic acid ortho to the hydrazine is critical to the stability of the formed hydrazone product. All reactions were performed in 1×PBS at 37° C., and points represent mean±s.d. for n=3 trials. […]

[11] = Hydrazone formation kinetics and reaction completion in 1×PBS at 37° C.
Method: as §4, §3

[12] = Hydrazo-CEST MRI phantom imaging (3 T and 7 T) and in situ hydrazone formation
Method: In the upper panel, a Phantom image and Z-spectra of hydrazine 2f and hydrazones 3f and 4f were acquired at the indicated field strength, 37° C., pH 7.4, and 40 mM concentration.
Values indicate the % MTRasym±the standard deviation of the off-resonance measurements once the system had reached steady state.
The kinetics of Hydrazo-CEST signal production through hydrazone formation were also evaluated in the MRI at 37° C. in 1×PBS at pH=7.4 (FIG. 28). Either PBS or a PBS solution of 2-formylbenzenesulfonic acid at a final concentration of 20 mM was injected into the imaging phantom, and Z-spectra were acquired every 4.5 min to monitor hydrazone formation.
A single saturation peak at 6.4 ppm was observed 4.5 min after aldehyde injection. […] This MRI data confirms that Hydrazo-CEST probes are rapidly activated by aldehydes under physiological conditions, and are readily detectable by 7 T MRI. Both hydrazine and hydrazone functionalities are utilized in medications broadly spanning indications from anti-infectives and anti-parasitics, to anti-cancer agents.

[13] = Preliminary in vitro toxicity assays

Compound: NNc1ccccc1C(=O)O [Compound 101, N-amino anthranilic acid]
- pseudo-first-order rate constant (kobs) [1]: 1.5 ± 0.2 min⁻¹

Compound: C/C=N/Nc1ccc(OC)cc1C(=O)O [Compound 4f]
- solubility ([2]; 40 mM, pH 6.5): not soluble
- MTRasym ([3]; 5 mM): 9%
- CEST-MRI signal generation (in words) [3]: substantial signal

Compound: CC=NNc1ccccc1C(=O)O [Compound 4a]
- solubility ([2]; neutral buffer): limited solubility beyond 20 mM
- solubility ([2]; pH 6.0-8.0): completely soluble

Compound: ONCc1ccccc1 [N-benzylhydroxylamine]
- protection against neurodegeneration [4]: provided protection against neurodegeneration

Compound: O=C(O)c1ccccc1NN=Cc1ccccc1S(=O)(=O)O [Compound 3a]
- CEST signal production [3]: ~5%

Compound: COc1ccc(NN=Cc2ccccc2S(=O)(=O)O)c(C(=O)O)c1 [Compound 3f]
- solubility ([2]; 40 mM, pH 6.0): insoluble
- stability of hydrazone product [5]: long-term stability

Compound: COc1ccc(NN)cc1.Cl.Cl [Compound 9, 4-methoxyphenyl hydrazine dihydrochloride, reference compound]
- kobs [6]: 0.119 ± 0.02 min⁻¹

Compound: COC(=O)c1cc(OC)ccc1NN [Compound 7, 5-methoxy-N-amino anthranilate methyl ester, reference compound]
- kobs [6]: 0.0008 ± 5.5e-05 min⁻¹
- time to hydrazone formation after aldehyde addition [7]: ≤ 1 s

Compound: O=C(O)c1cccc(O)c1 [Compound 12, 3-Hydroxybenzoic acid, reference compound]
- CEST-MRI signal generation (in words) [3]: nearly completely abolishes signal production

Compound: C/C=N/Nc1ccc(OC)cc1C(=O)OC [Compound 8b, reference compound]
- CEST-MRI signal generation (in words) [3]: complete loss of the CEST effect
- CEST-MRI signal generation (in words) ([3]; listed as compound 302): prevents any CEST-MRI signal generation

Compound: O=C(O)c1cccnc1N/N=C/c1ccccc1S(=O)(=O)O [Compound 319]
- CEST signal production [3]: ~25%

Compound: COc1ccc(-n2cccn2)c(C(=O)O)c1 [Compound 5]
- time to completion of pyrazole product formation [8]: ≤ 20 min
- CEST-MRI signal generation (in words) [3]: Complete abolishment of signal production

Compound: COc1ccc(N/N=C/C(O)CO)c(C(=O)O)c1 (stereo not shown) [Compound 5c]
- CEST-MRI signal generation (in words) [3]: limited signal production

Compound: COc1ccc(NN)c(C(=O)O)c1 [Compound 2f, 5-methoxy N-amino anthranilic acid]
- hydrazone formation with D-glucose [9]: no hydrazone formation
- kobs [10]: 0.012 ± 0.001 min⁻¹
- kobs ([11]; pseudo-first order, 37° C., carbonyl acetone): 0.017 ± 0.0004 min⁻¹
- product formation ([11]; reaction with acetone, 37° C. (data not shown)): < 25%
- kobs [6]: 0.112 ± 0.03 min⁻¹
- reaction completion (hydrazone formation) ([6]; within 30 min of initiation): ~90%
- maximum plateau % MTRasym ([12]; 40 mM hydrazine plus 20 mM 2-formylbenzenesulfonic acid, 37° C., 1×PBS, pH 7.4): 4.6±0.7 % MTRasym
- CEST contrast in MRI (in words) ([12]; 37° C., pH 7.4, 40 mM): produced no CEST contrast
- Hydrazo-CEST signal as share of maximal signal ([12]; within the first 4.5 min after aldehyde injection): > 50%
- CEST-MRI signal generation (in words) [3]: little CEST-MRI signal
- in vitro toxicity [13]: initial safety
